The values that follow come from patent US9944654B2, “Nargenicin compounds and uses thereof as antibacterial agents” (priority 2014, dated 2018).

For assay [1], the target named is T1, E. coli DnaE (DNA polymerase III α-subunit from Escherichia coli) (Escherichia coli, UniProt P10443).
T1 construct: EcDnaE (E. coli DnaE residues 1-1160); 6xHis (N); made in house; host or cells: E. coli BL21(DE3)
The experiment in a line: In vitro DnaE single enzyme assay (E. coli). In kind it is biochemical. In short, it runs like this:
(§1)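 His-tagged E. coli DnaE (residues 1-1160, 0.8 μg/ml) or S. aureus DnaE (residues 1-1065, 0.05 μg/ml) incubated 30 min at 30° C. with activated calf thymus DNA, 0.025 mM dATP/dGTP/dCTP and 0.011 mM 3H-dTTP in Tris pH 7.5/Mg acetate. TCA-precipitated labelled DNA counted.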

For assay [2], the target named is T2, S. aureus DnaE (DNA polymerase III α-subunit homolog from Staphylococcus aureus) (Staphylococcus aureus, UniProt Q5HF71).
T2 construct: SaDnaE (S. aureus DnaE residues 1-1065); 6xHis (N); made in house; host or cells: E. coli BL21-AI
T2 sequence (Q5HF71 1-1065): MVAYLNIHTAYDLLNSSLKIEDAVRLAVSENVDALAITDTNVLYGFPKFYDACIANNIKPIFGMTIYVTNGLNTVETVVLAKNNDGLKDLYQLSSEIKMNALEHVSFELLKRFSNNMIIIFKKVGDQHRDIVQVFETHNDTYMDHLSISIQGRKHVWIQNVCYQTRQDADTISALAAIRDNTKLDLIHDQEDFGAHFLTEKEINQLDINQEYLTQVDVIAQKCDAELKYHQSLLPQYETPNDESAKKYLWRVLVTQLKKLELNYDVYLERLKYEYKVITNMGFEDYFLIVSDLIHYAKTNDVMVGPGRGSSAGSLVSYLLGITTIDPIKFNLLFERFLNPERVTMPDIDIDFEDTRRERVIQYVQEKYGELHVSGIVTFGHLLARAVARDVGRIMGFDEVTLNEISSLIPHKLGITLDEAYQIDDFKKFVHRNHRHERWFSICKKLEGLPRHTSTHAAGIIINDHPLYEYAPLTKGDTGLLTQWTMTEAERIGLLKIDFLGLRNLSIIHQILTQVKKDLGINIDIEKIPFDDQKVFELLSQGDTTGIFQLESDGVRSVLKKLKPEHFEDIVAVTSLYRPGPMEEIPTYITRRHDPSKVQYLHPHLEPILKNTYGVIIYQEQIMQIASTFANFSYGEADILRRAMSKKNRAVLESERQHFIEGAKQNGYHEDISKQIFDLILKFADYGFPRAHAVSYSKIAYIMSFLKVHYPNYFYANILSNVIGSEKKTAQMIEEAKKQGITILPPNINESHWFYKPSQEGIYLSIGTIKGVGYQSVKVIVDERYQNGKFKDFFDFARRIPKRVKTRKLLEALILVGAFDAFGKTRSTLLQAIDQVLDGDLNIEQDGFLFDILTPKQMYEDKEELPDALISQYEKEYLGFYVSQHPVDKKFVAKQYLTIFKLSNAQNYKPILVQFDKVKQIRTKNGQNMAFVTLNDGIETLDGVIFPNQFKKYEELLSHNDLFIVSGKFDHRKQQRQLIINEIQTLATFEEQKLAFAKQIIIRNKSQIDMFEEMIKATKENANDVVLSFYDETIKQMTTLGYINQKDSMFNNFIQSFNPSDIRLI
The assay is described as follows: biochemical. It is filed as biochemical. In short, it runs like this: as §1

Assay [3] concerns Streptococcus pneumoniae MB6357 (CL 2883). The assay is described as follows: Nargenicin antibacterial assay (MIC), S. pneumoniae. In kind it is cell-based. Conditions: Streptococcus pneumoniae, read-out: S. pneumoniae MB2883 (MIC), Isosensitest broth; * = some reduction of growth versus control at […].
For assay [4], the system named is Pseudomonas aeruginosa MB5890 (CB1101, efflux-deleted). The experiment in a line: microbe, parasite or virus in culture. It is filed as cell-based. To be noted: Pseudomonas aeruginosa, read-out: P. aeruginosa MB5890 efflux-del (MIC), MHII broth; * = some reduction of growth versus control at […].
Assay [5] has as its system Escherichia coli MB5747 (LS 883, tolC). The assay is described as follows: microbe, parasite or virus in culture. Conditions: Escherichia coli, read-out: E. coli LS883 tolC (MIC), MHII broth; * = some reduction of growth versus control at […]. It is filed as cell-based.
The subject of assay [6] is Staphylococcus aureus MB6266 (MRSA COL). The experiment in a line: Nargenicin antibacterial assay (MIC), S. aureus. It is filed as cell-based. Conditions: Staphylococcus aureus, MRSA, read-out: S. aureus COL (MIC), MHII broth + 50% human serum; * = some reduction of growth versus control at […].
Where [7] appears, read: read-out: E. coli DnaE IC50 (converted).
[8] abbreviates: read-out: S. aureus DnaE IC50 (converted).

Molecules are shown by their SMILES. ≈ marks a conversion by molar mass, not a printed value. Where two headings read alike, the source gives them in different places.

T1 sequence (P10443 whole entry, the tested form may be a part): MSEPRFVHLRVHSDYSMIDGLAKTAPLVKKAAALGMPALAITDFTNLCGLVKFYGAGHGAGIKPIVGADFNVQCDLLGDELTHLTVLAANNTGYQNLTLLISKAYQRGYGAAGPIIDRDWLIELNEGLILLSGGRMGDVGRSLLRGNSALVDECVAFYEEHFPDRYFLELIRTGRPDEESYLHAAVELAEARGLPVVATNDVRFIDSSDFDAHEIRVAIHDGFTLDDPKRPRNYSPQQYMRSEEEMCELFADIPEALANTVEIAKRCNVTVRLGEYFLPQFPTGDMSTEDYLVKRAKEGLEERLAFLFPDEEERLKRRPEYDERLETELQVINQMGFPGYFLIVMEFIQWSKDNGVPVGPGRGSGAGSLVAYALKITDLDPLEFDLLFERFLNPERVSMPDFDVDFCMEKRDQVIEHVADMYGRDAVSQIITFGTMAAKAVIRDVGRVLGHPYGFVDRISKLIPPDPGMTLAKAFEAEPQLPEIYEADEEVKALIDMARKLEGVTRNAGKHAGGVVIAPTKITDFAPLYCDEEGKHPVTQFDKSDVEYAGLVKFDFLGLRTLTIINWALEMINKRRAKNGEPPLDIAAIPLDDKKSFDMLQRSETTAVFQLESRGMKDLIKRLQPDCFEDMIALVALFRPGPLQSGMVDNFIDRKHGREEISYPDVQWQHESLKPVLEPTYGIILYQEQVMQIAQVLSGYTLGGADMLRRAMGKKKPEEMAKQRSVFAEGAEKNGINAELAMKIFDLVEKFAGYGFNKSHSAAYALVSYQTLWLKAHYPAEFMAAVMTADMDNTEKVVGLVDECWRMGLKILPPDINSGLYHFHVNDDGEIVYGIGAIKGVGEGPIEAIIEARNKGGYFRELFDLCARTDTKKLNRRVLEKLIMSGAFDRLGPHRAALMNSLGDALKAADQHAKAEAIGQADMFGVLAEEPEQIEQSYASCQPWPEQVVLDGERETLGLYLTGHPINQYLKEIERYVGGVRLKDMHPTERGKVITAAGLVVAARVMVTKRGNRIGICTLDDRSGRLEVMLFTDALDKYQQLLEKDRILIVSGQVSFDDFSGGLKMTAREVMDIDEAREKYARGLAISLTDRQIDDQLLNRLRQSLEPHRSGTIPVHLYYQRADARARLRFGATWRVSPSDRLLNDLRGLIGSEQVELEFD

A word on the IC50: it is the concentration needed to halve the response being measured. With `CC[C@H]1OC(=O)[C@@H](OC)C[C@H]2C=C[C@H]3[C@H]4O[C@]2(/C(C)=C/[C@H]1C)[C@@H]3[C@H](O)C(C)[C@H]4C#N` (stereo partly drawn) [Example 189, (3R,4R,7S,8aS,10aR,11R,12S,14R,14aS,14bS,E)-4-ethyl-14-hydroxy-7-methoxy-1,3,13-trimethyl-6-oxo-3,4,6,7,8,8a,10a,11,12,13,14,14a-dodecahydro-11,14b-epoxynaphtho[2,1-e]oxecine-12-carbonitrile], the IC50 is over 241 µM in assay [1] (setting [7]) and 144 µM in assay [2] (S. aureus DnaE IC50). Also, the MIC in assay [3], in assay [4], in assay [5] and in assay [6] was over 128 µg/mL in each case.

`CO[C@H]1C[C@H]2C=C[C@H]3[C@H]4O[C@]2(/C(C)=C/[C@@H](C)[C@@H]([C@@H](C)O)OC1=O)[C@@H]3[C@H](O)C(C)[C@@H]4NCc1ccncc1.O=C(O)C(F)(F)F` (stereo partly drawn) [Example 154]: the half-inhibitory concentration (IC50) in assay [1] (E. coli DnaE IC50) is over 160 µM; in assay [2] (setting [8]), 112 µM. For the same compound, the MIC in assay [3], in assay [4], in assay [5] and in assay [6] was over 128 µg/mL each time.

Take `CO[C@H]1C[C@H]2C=C[C@H]3[C@H]4O[C@]2(/C(C)=C/[C@@H](C)[C@H](c2ccccc2)OC1=O)[C@@H]3[C@H](O)[C@@H](C)[C@H]4OC(=O)c1ccc[nH]1` [Example 52]: the concentration for half-maximal inhibition (IC50) was 73 µM in assay [1] (setting [7]) and 1.1 µM in assay [2] (S. aureus DnaE IC50). Further, the MIC in assay [3], in assay [4], in assay [5] and in assay [6] was over 128 µg/mL each time.

On to `CO[C@H]1CC2C=C[C@H]3[C@H]4O[C@]2(/C(C)=C/[C@@H](C)[C@@H]([C@@H](C)OC(=O)NN)OC1=O)[C@@H]3[C@H](O)[C@@H](C)[C@H]4OC(=O)c1ccc[nH]1` (stereo partly drawn) [Example 18], for which the values for the half-inhibitory concentration (IC50) in assay [1] (setting [7]) and in assay [2] (S. aureus DnaE IC50) were 105 µM and under 0.0105 µM, respectively. In addition, the MIC is 128 µg/mL (≈ 223 µM) in assay [3], over 128 µg/mL in assay [4], 4 µg/mL (≈ 6.97 µM) in assay [5] and 8 µg/mL in assay [6].

Consider `CO[C@H]1CC2C=C[C@H]3[C@H]4O[C@]2(/C(C)=C/[C@@H](C)[C@@H]([C@@H](C)O)OC1=O)[C@@H]3[C@H](OC(=O)NC1CC1)[C@@H](C)[C@H]4OC(=O)c1ccc[nH]1` (stereo partly drawn) [Example 39], for which the IC50 is over 167 µM in assay [1] (E. coli DnaE IC50) and 15 µM in assay [2] (setting [8]). Also, the MIC in assay [3], in assay [4], in assay [5] and in assay [6] was over 128 µg/mL each time.

In the case of `CO[C@H]1CC2C=C[C@H]3[C@H]4O[C@]2(/C(C)=C/[C@@H](C)[C@@H]([C@@H](C)OC(=O)NCCO)OC1=O)[C@@H]3[C@H](O)[C@@H](C)[C@H]4OC(=O)c1ccc[nH]1` (stereo partly drawn) [Example 15], the 50% inhibitory concentration (IC50) in assay [1] (setting [7]) was about 183 µM; in assay [2] (S. aureus DnaE IC50), under 0.00996 µM. Also, the MIC in assay [3] is over 128 µg/mL; in assay [4], 128 µg/mL (≈ 212 µM); in assay [5] it was 4 µg/mL (≈ 6.64 µM); in assay [6], 8 µg/mL.

Take `CO[C@H]1CC2C=C[C@H]3[C@H]4O[C@]2(/C(C)=C/[C@@H](C)[C@@H]([C@@H](C)OC(=O)C[n+]2ccccc2)OC1=O)[C@@H]3[C@H](O)[C@@H](C)[C@H]4OC(=O)c1ccc[nH]1` (stereo partly drawn) [Example 71]: the half-maximal inhibitory concentration (IC50) was 18.9 µM in assay [1] (setting [7]) and under 0.00944 µM in assay [2] (S. aureus DnaE IC50). In addition, the MIC in assay [3] was over 128 µg/mL; in assay [4] it was 8 µg/mL; in assay [5], 0.25 µg/mL; in assay [6], 0.25 µg/mL.

Consider `CO[C@H]1C[C@H]2C=C[C@H]3[C@H]4O[C@]2(/C(C)=C/[C@@H](C)[C@@H]([C@@H](C)O)OC1=O)[C@@H]3C(=O)C(C)[C@H]4C[N+](=O)[O-]` (stereo partly drawn) [Example 162, (3R,4 S ,7S ,8aS ,10aR,11R,12 S ,14aR,14b S,E)-4-((R)-1-hydroxyethyl)-7-methoxy-1,3,13-trimethyl-12-(nitromethyl)-3 ,4,8,8a,10a,11,12,13-octahydro-11,14b-epoxynaphtho [2,1-e]oxecine-6,14(7H,14aH)-dione], for which the half-maximal inhibitory concentration (IC50) was over 216 µM in assay [1] (E. coli DnaE IC50) and 17.3 µM in assay [2] (setting [8]). In addition, the MIC in assay [3], in assay [4], in assay [5] and in assay [6] was over 128 µg/mL throughout.

On to `CO[C@H]1C[C@H]2C=C[C@H]3[C@H]4O[C@]2(/C(C)=C/[C@@H](C)[C@@H]([C@@H](C)OC(=O)OCC(CO)CO)OC1=O)[C@@H]3[C@H](O)[C@@H](C)[C@H]4OC(=O)c1ccc[nH]1` [Example 36], for which the IC50 in assay [1] (setting [7]) was 17 µM; in assay [2] (S. aureus DnaE IC50) it was under 0.00926 µM. Besides, the MIC in assay [3] was over 128 µg/mL; in assay [4] it was 64 µg/mL (≈ 98.8 µM); in assay [5], 2 µg/mL (≈ 3.09 µM); in assay [6], 2 µg/mL.

`CO[C@H]1C[C@H]2C=C[C@H]3[C@H]4O[C@]2(/C(C)=C/[C@@H](C)[C@@H]([C@@H](C)OC(=O)NCCN(C)C)OC1=O)[C@@H]3[C@H](O)[C@@H](C)[C@H]4OC(=O)c1ccc[nH]1` [Example 5]: the IC50 in assay [1] (E. coli DnaE IC50) is over 159 µM; in assay [2] (setting [8]), 0.0143 µM. In addition, the MIC in assay [3] is over 128 µg/mL; in assay [4] it was over 128 µg/mL; in assay [5], 16 µg/mL (≈ 25.4 µM); in assay [6], 32 µg/mL.

On to `C=CC[C@@H]1C(C)[C@@H](O)[C@@H]2[C@H]3C=C[C@@H]4C[C@H](OC)C(=O)O[C@H]([C@@H](C)O)[C@H](C)/C=C(\C)[C@@]24O[C@H]31` (stereo partly drawn) [Example 179, (3R,4S,7S,8aS,10aR,11S,12R,14R,14aS,14bS,E)-12-allyl-14-hydroxy-4-((R)-1-hydroxyethyl)-7-methoxy-1,3,13-trimethyl-3,4,8,8a,10a,11,12,13,14,14a-decahydro-11,14b-epoxynaphtho[2,1-e]oxecin-6(7H)-one], for which the IC50 was over 112 µM in assay [1] (setting [7]) and 29.1 µM in assay [2] (S. aureus DnaE IC50). Also, the MIC in assay [3] was 64 µg/mL (≈ 143 µM); in assay [4], over 64 µg/mL; in assay [5], 64 µg/mL (≈ 143 µM); in assay [6], over 64 µg/mL.

Turning to `CO[C@H]1C[C@H]2CC(=O)[C@H]3[C@H]4O[C@]2(/C(C)=C/[C@@H](C)[C@@H]([C@@H](C)O)OC1=O)[C@@H]3[C@H](O)[C@@H](C)[C@H]4OC(=O)c1ccc[nH]1` [Example 181], the IC50 was over 188 µM in assay [1] (setting [7]) and 0.0941 µM in assay [2] (S. aureus DnaE IC50). Besides, the MIC in assay [3] is over 128 µg/mL; in assay [4], 32 µg/mL (≈ 60.2 µM); in assay [5] it was 8 µg/mL (≈ 15 µM); in assay [6], 64 µg/mL.

In the case of `CO[C@H]1C[C@H]2C=C[C@H]3[C@H]4O[C@]2(/C(C)=C/[C@@H](C)[C@@H](C(C)=O)OC1=O)[C@@H]3C(=O)[C@@H](C)[C@H]4OC(=O)c1ccc[nH]1` [Example 171], the figures for the half-maximal inhibitory concentration (IC50) in assay [1] (setting [7]) and in assay [2] (S. aureus DnaE IC50) were 176 µM and 6.84 µM, respectively. The MIC in assay [3] is over 128 µg/mL; in assay [4], over 128 µg/mL; in assay [5] it was over 8 µg/mL; in assay [6] it was over 8 µg/mL.
